Measurements reported in PMC6709497, “Identification of Novel Trypanosoma cruzi Proteasome Inhibitors Using a Luminescence-Based High-Throughput Screening Assay” (Antimicrobial Agents and Chemotherapy, 2019).
Where two headings read alike, the source gives them in different places. Starred links: 1 amine or outer side, 2 acyl side, 3 side chain; linkers in the order of their positions; H or OH if unused. Non-standard residues stand in square brackets, D forms with d. Residues, ends and D or L forms follow the SMILES beside them. ξ: configuration not given here. *: point of attachment. aminoluciferin = aminoluciferin attached at the C-terminus (luminogenic reporter), O=C(O)[C@H]1CSC(c2nc3ccc(N*)cc3s2)=N1; Suc = O=C(CCC(=O)[*:2])[*:1]; Nva = CCC[C@H](N)C(=O)O; Cbz = O=C(OCc1ccccc1)*; ξL = CC(C)CC(N)C(=O)O

Key:
[1] = set-up: method as in PMID 28645201; settings: cited from earlier work
[2] = molecular target: T. cruzi proteasome caspase-like activity (Trypanosoma cruzi, UniProt V5BHX1); assay: Cell-free T. cruzi proteasome caspase-like activity luminescence assay; format: biochemical; settings: n = 4; 20 μM Z-Nle-Pro-Nle-Asp-aminoluciferin
Chain of T. cruzi proteasome caspase-like activity (V5BHX1 entry or part of it): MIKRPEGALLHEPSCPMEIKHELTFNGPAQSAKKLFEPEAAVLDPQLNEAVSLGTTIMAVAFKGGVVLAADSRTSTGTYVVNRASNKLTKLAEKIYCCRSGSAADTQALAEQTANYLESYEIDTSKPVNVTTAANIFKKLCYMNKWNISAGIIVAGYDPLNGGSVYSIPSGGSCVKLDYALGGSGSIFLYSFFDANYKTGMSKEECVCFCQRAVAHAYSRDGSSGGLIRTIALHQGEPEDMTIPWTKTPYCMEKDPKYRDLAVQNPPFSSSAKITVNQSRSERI
Description: (§1) The commercially available Proteasome-Glo 3-substrate system and chymotrypsin-like assay kits (Promega; catalogue no. G8531 and G8622, respectively) were assembled according to the manufacturers’ protocols ([29]) unless otherwise stated. Briefly, Proteasome-Glo buffer was used to formulate the luciferin detection reagent (containing a recombinant thermostable luciferase enzyme) to approximately 0.35% (wt/vol) final assay concentration. The luciferin detection reagent was then mixed with Proteasome-Glo trypsin-, caspase-, or chymotrypsin-like reagents (comprising 15 μM Z-Leu-Arg-Arg-aminoluciferin (Z is benzyloxycarbonyl), 20 μM Z-Nle-Pro-Nle-Asp-aminoluciferin, or 20 μM suc-Leu-Leu-Val-Tyr-aminoluciferin substrate, respectively, at final assay concentrations), and the mixture was allowed to incubate at room temperature for 60 min prior to use. T. cruzi proteasome buffer comprised 50 mM Tris-HCl, pH 7.5, 10 mM sucrose, 5 mM MgCl2, 1 mM dithiothreitol, 2 mM ATP, 150 mM NaCl, 1 mM EDTA, and 0.05 mg/ml bovine serum albumin (BSA). T. cruzi strain Silvio X10/7 epimastigotes were maintained in vitro at 28°C in RTH-fetal calf serum (FCS) culture medium (RPMI 1640 supplemented with 0.4% Trypticase peptone, 0.017 M HEPES, 25 μM hemin, 10% heat-inactivated FCS). Biochemical cell-free assays were performed in an 8-μl final assay volume using 384-well white low-volume plates (Greiner; catalogue no. 784904), and cellular assays were performed in a 50-μl final assay volume using 384-well standard volume plates (Greiner; catalogue no. 781098). Luminescence was read using an EnVision 2102 Multilabel Reader (PerkinElmer, USA) with 0.2-s per well reading time, unless otherwise specified. DMSO or compound was added to the assay plates using Echo acoustic dispensers (Labcyte, USA). Reagent addition for high-throughput screening assays was performed using an Xrd-384 liquid dispenser (FluidX, United Kingdom) and a BioFill Solo/Xrd-384 8-channel resin nozzle (0.5- to 200-μl) tubing cartridge (FluidX; catalogue no. 34-1003). Data analysis was performed using SigmaPlot 12.5 software unless otherwise stated. Z factor values were calculated using the following equation: Z factor = 1 − ({3 × [1.483 × (RLU MAD Max)]} + {3 × [1.483 × (RLU MAD Min)]})/(median RLU Max − median RLU Min), where MAD is the median absolute deviation, Max is the maximum-effect control samples, and Min is the minimum-effect control samples.
(§2) Next, 4 μl of luciferin detection and Proteasome-Glo chymotrypsin-, caspase-, or trypsin-like reagent mixtures were added to initiate the biochemical reaction. The reaction was allowed to proceed at room temperature for 60 min, after which the luminescence was read. Data were acquired from 4 independent replicates (n = 4). Relative luminescence unit (RLU) data were normalized to percent inhibition values relative to 100% effect (DMSO, 1% [vol/vol] final assay concentration in the absence of T. cruzi proteasome enzyme) and 0% effect (DMSO, 1% [vol/vol] final assay concentration with T. cruzi proteasome enzyme) control populations using Microsoft Excel 2013 software. IC50 values were calculated by fitting the concentration-response data for each independent replicate separately to either a four-parameter logistic model or a seven-parameter logistic model with the bottom curve plateau parameter constrained to zero, as shown below.
The four-parameter logistic model is as follows: y=Min+Max−Min/1+(x/IC50)^−Hillslope […]

[3] = test system: T. cruzi strain Silvio X10/7 epimastigotes; assay: Cellular T. cruzi epimastigote viability assay; format: cell-based, Trypanosoma cruzi; settings: 96 h; for EC50: Trypanosoma cruzi, read-out: Cellular pEC50 ± SD (converted)
Description: For the cell viability readout, BacTiter-Glo microbial cell viability reagent (Promega; catalogue no. G8230) was added to each well (25 μl) and incubated at room temperature for 5 min. The plates were then sealed with clear film, and the luminescence was read using a Victor 3 (PerkinElmer, USA) or Pherastar FS (BMG Labtech, Germany) plate reader with a 0.5-s per well reading time. Data for epoxomicin were obtained from three independent replicates (n = 3), and data for all the remaining compounds were acquired from four independent replicates (n = 4). RLU data were normalized to percent inhibition values relative to 100% effect (Nifurtimox) and 0% effect (DMSO; 1% [vol/vol] final assay concentration) control populations. Normalized data for each independent replicate were fitted separately to a four-parameter logistic regression model, and pEC50 {i.e., −log(EC50[M])} values were calculated using IBDS ActivityBase 8.1.2.12 software, after which a mean pEC50 value for each compound was calculated.

[4] = molecular target: T. cruzi proteasome chymotrypsin-like activity (Trypanosoma cruzi, UniProt V5BU39); assay: Cell-free T. cruzi proteasome chymotrypsin-like activity luminescence assay (commercial inhibitors); format: biochemical
Chain of T. cruzi proteasome chymotrypsin-like activity (V5BU39 entry or part of it): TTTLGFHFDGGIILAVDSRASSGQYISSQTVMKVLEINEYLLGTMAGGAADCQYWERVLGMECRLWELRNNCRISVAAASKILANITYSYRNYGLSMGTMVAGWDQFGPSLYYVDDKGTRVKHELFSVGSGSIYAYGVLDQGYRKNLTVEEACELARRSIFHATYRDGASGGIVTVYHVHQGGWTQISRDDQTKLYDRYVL
Chain of T. cruzi proteasome chymotrypsin-like activity (A0A2V2VW62 entry or part of it, further chain): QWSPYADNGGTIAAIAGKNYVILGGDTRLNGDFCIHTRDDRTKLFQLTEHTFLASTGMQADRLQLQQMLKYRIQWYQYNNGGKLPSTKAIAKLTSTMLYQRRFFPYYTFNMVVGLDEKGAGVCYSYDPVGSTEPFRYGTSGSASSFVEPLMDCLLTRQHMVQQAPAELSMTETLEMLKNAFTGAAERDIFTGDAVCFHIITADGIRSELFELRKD
Chain of T. cruzi proteasome chymotrypsin-like activity (V5C017 entry or part of it, further chain): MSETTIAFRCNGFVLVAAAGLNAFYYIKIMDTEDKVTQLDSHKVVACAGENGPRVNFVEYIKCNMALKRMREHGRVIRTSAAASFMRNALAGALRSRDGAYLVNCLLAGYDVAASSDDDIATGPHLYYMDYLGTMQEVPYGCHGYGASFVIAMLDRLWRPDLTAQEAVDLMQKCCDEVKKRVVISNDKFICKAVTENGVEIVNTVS
Description: as §1, with “T. cruzi strain Silvio X10/7 epimastigotes were maintained in vitro at 28°C in RTH-fetal calf serum (FCS) culture medium (RPMI 1640 supplemented with 0.4% Trypticase peptone, 0.017 M HEPES, 25 μM hemin, 10% heat-inactivated FCS).” left out
as §2
The four-parameter logistic model is as follows: y=Min+Max−Min/1+(x/IC50)^−Hillslope
The seven-parameter logistic model is as follows: y=(Max_1+{Min−Max_1/1+[(x/IC50_1)^Hillslope_1]})+(Max_2−{Max_2/1+[(x/IC50_2)^Hillslope_2]}) […]

[5] = molecular target: T. cruzi proteasome trypsin-like activity (Trypanosoma cruzi, UniProt V5BCU3+V5BGL9); assay: Cell-free T. cruzi proteasome trypsin-like activity luminescence assay; format: biochemical; settings: n = 4; 15 μM Z-Leu-Arg-Arg-aminoluciferin
Chain of T. cruzi proteasome trypsin-like activity (V5BGL9 entry or part of it): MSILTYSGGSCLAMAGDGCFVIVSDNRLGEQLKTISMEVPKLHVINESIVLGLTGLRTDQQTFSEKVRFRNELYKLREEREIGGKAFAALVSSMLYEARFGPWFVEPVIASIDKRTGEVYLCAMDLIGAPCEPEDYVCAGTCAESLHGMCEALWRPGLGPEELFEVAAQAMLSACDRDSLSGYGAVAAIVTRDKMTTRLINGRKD
Chain of T. cruzi proteasome trypsin-like activity (V5BCU3 entry or part of it): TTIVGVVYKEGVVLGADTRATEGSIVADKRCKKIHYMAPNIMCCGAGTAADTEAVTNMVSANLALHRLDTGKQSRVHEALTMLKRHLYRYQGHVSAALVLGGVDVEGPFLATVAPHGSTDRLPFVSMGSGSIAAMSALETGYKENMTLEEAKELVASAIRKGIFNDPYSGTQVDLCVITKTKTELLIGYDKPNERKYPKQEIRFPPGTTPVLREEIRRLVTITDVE
Description: as §1, with “T. cruzi strain Silvio X10/7 epimastigotes were maintained in vitro at 28°C in RTH-fetal calf serum (FCS) culture medium (RPMI 1640 supplemented with 0.4% Trypticase peptone, 0.017 M HEPES, 25 μM hemin, 10% heat-inactivated FCS).” left out, “Reagent addition for high-throughput screening assays was performed using an Xrd-384 liquid dispenser (FluidX, United Kingdom) and a BioFill Solo/Xrd-384 8-channel resin nozzle (0.5- to 200-μl) tubing cartridge (FluidX; catalogue no. 34-1003). Data analysis was performed using SigmaPlot 12.5 software unless otherwise stated.” left out
as §2, with “Data were acquired from 4 independent replicates (n = 4).” left out, “below. […]” for “below.”

T. cruzi proteasome = assay: Kinetic-parameter (Km) determination for chymotrypsin-like substrate; format: biochemical, Trypanosoma cruzi; settings: 95% CI = 78.8 to 108.4 μM; 60-min reaction; n = 3; read-out: apparent steady-state Km
Description: Assay linearity and the optimal amount of T. cruzi proteasome for screening was determined by first serially diluting (1 in 2; CMF = 0.5) the proteasome stock solution in proteasome buffer to generate 10 additional concentrations. Next, 4 μl of each of the T. cruzi proteasome solutions was added to 4 μl of the luciferin detection and Proteasome-Glo chymotrypsin-like reagent mixture. Luminescence was read immediately and then every 90 s for 75 min. Data were acquired from 5 technical replicates (n = 5). To calculate the Michaelis constant (Km) and identify the optimal amount of chymotrypsin-like suc-Leu-Leu-Val-Tyr-aminoluciferin substrate for screening, the Proteasome-Glo chymotrypsin-like assay (Promega; catalogue no. G8622) luciferin detection reagent (comprising luciferase enzyme in Proteasome-Glo buffer) was prepared according to the manufacturers’ protocol ([29]). A 1,200 μM solution (600 μM final assay concentration) of the substrate was prepared and subsequently serially diluted (1 in 2; CMF = 0.5) using the luciferin detection reagent to generate 8 additional concentrations. Next, 4 μl of each of the luciferin detection and substrate solution mixtures was added to 4 μl of partially purified T. cruzi proteasome that was diluted 1 in 4 (CMF = 0.25) from the original stock using proteasome buffer. Luminescence was read immediately and then every 90 s for 75 min. […]

[6] = test system: proteasome chymotrypsin-like activity; set-up: method as in PMID 25308265; settings: similar assay platform in a cellular system; read-out: Km, approximate value; cited from earlier work
[7] = BacTiter-Glo viability readout, n = 4 (epoxomicin n = 3)

Compound	Cell-free pIC50 ± SD, Caspase-like [2]	EC50 [3, 7]	chymotrypsin-like activity dose-response curve shape [4]	Cell-free pIC50 ± SD, Trypsin-like [5]	other results
O=C(Cn1ccnc1[N+](=O)[O-])NCc1ccccc1 [Benznidazole, benznidazole]					treatment discontinuation rate due to side effects [1]: 10%
CC(C)C[C@H](NC(=O)[C@H](Cc1ccccc1)NC(=O)c1cnccn1)B(O)O [Bortezomib, bortezomib]	7.16 ± 0.13 M	0.24 µM	biphasic		IC30 ([4]; concentration approximately equivalent to IC30, used for spiking test plates): ~0.004 µM; IC70 ([4]; concentration approximately equivalent to IC70, used for spiking test plates): ~0.079 µM
CC[C@H](C)[C@H](NC(=O)[C@H]([C@@H](C)CC)N(C)C(C)=O)C(=O)N[C@H](C(=O)N[C@@H](CC(C)C)C(=O)[C@@]1(C)CO1)[C@@H](C)O [Epoxomicin, epoxomicin]	5.85 ± 0.05 M			6.10 ± 0.06 M	EC50 [3]: 0.0631 µM
CC(C)C[C@H](NC(=O)CNC(=O)c1cc(Cl)ccc1Cl)B(O)O [Ixazomib, ixazomib]	7.49 ± 0.17 M	0.708 µM	biphasic	5.51 ± 0.07 M	
CCC[C@@H](C=O)NC(=O)C(CC(C)C)NC(=O)[C@H](CC(C)C)NC(=O)OCc1ccccc1 (stereo partly drawn) [MG115] (Cbz-Leu-[ξL]-[Nva]-aldehyde)	4.91 ± 0.10 M	4.37 µM		4.87 ± 0.09 M	
CC(C)C[C@@H](C=O)NC(=O)[C@H](CC(C)C)NC(=O)[C@H](CC(C)C)NC(=O)OCc1ccccc1 [MG132] (Cbz-Leu-Leu-Leu-aldehyde)	6.01 ± 0.09 M		biphasic	4.88 ± 0.14 M	EC50 [3]: 2.45 µM
oprozomib					Cellular pEC50 ± SD [3, 7]: 6.53 ± 0.32 M
succinyl-Leu-Leu-Val-Tyr-aminoluciferin (Suc-LLVY-aminoluciferin; SMILES CC(C)C[C@H](NC(=O)CCC(=O)O)C(=O)N[C@@H](CC(C)C)C(=O)N[C@H](C(=O)N[C@@H](Cc1ccc(O)cc1)C(=O)Nc1ccc2nc(C3=N[C@@H](C(=O)O)CS3)sc2c1)C(C)C) [suc-Leu-Leu-Val-Tyr-aminoluciferin, luminogenic chymotrypsin-like peptide substrate]					Km (T. cruzi proteasome): 93.5 µM; Km [6]: ~60 µM
